Experimental data as given in publication PMC10313808, “Lipoxygenase inhibitory synthetic derivatives of methyl gallate regulate gene expressions of COX-2 and cytokines to reduce animal model arthritis” (Scientific Reports, 2023).

Legend:
[1] = FCA-induced arthritis: body weight measurement; format: in vivo, Sprague–Dawley (SD) rats; details: FCA rats, 10 mg.kg^−1 oral
Description: (§1) Chronic inflammation induced by Freund's Complete Adjuvant contains a suspension of heat-killed Mycobacterium tuberculosis in the vehicle (Chondrex, Labex Corporation). 100 μL of FCA (10 mg/mL) was injected intradermally to the left-hand paw of SD rats[42]. […] Induction of inflammation became chronic by 9–12 days and then rats were divided into 7 groups having 6 rats in each group. Everything possible was done to minimize the suffering of experimental animals. Minimum number of rats only were drafted to generate reliable data. 42 rats were randomly allocated into seven groups (6 × 7).
(§2) Group I (n = 6) served as normal rats that received an equal volume of vehicle control. Group II (n = 6) was arthritic model control treated with vehicle only. Group III (n = 6) was arthritic control which received the diclofenac (10 mg.kg^–1). Groups IV (n = 6), V (n = 6), VI (n = 6) and VII (n = 6) were treated with a low and high dose of methyl gallate (20 mg.kg^–1, 40 mg.kg^–1) and MGSD 1 (1 mg.kg^–1, 10 mg.kg^–1). The drugs were orally administered through oral gavage daily in PBS vehicle for 28 days.
The bodyweight of the animals was measured every day after the commencement of the experiment till the end (28th day). The weight change was calculated using the formula: Weightchange%=Wt-Wo/[…], where Wt is the weight of the animal at time t
Wo is the weight of the animal on the initial day.

[2] = system: ankle joints, liver, spleen, and thymus; assay: FCA-induced arthritis: histological analysis; format: in vivo, Sprague–Dawley (SD) rats; details: FCA rats
Description: The animals used for the FCA induced arthritis were euthanized at the end of the experiment and the ankle joints were separated from the hind paw and fixed in 10% buffered formalin. Similarly, liver, spleen, and thymus were also dissected carefully and immersed in fixative, and after 24 h each specimen were decalcified in 5% nitric acid, followed by embedding in paraffin wax and 4 µm thickness sections were prepared. These prepared sections were then mounted and stained with hematoxylin and[…] under brightfield compound binocular research microscope at 100X and 400X magnification and inflammation was graded.

[3] = system: FCA-induced arthritis; assay: FCA-induced arthritis: hind paw volume; format: in vivo, Sprague–Dawley (SD) rats; details: FCA rats, 10 mg.kg^−1 oral
Description: as §1, §2
By a plethysmometer the rat hind paw volume was measured from the initial day to final day (28th day) with successive intervals of 9 days, before and after FCA injection. The inhibition was calculated by the formula given below. Percentageinhibition=1-Meanchangesinpawvolumeoftreatedrat/Meanchangesinpawvolumeofuntreatedrat×100.

[4] = system: FCA-induced arthritis; assay: FCA-induced arthritis: organ index (liver, spleen); format: in vivo, Sprague–Dawley (SD) rats; details: FCA rats, 10 mg.kg^−1 oral, end of experiment
Description: as §1, §2
At the end of the experiments, animals were euthanized using ketamine injection. The liver and spleen were removed at the end of the experiment and weighed. The index of the organs was expressed as the percentage (%) wet weight of organ versus body weight. The organ indexes were calculated by using the following formula Organindex=Weightoforgang/Bodyweightg×100.

[5] = system: FCA-induced arthritis; assay: FCA-induced arthritis: haematological parameters; format: in vivo, Sprague–Dawley (SD) rats; details: FCA rats, 10 mg.kg^−1 oral
Description: as §1, §2
(§3) Blood was drawn from jugular vein[43] and collected in heparinized tubes and used for further analysis. By using Horiba 5-part hematology analyzer the blood parameters like RBC, WBC, neutrophil and hemoglobin were analyzed. Serum parameters were analyzed using Stat Fax autoanalyzer. Serum glutamic pyruvic transaminase (SGPT), serum glutamic oxaloacetic transaminase (SGOT) and alkaline phosphatase (ALP) were determined using standard diagnostic kits (Proton, Accurex).

[6] = system: FCA-induced arthritis; details: FCA rats, serum, 10 mg.kg^−1 oral
Description: as §1, §2, §3

[7] = target: T1, LOX (Glycine max, UniProt P08170); assay: Fluorescence quenching studies; format: binding; details: 296 K, pH 9; for Kd: read-out: Binding constant (K) (converted); for Quenching constant (Ksv): Stern–Volmer
T1 construct: purchased Sigma (Sigma-Aldrich, UK)
T1 sequence (P08170 1-839): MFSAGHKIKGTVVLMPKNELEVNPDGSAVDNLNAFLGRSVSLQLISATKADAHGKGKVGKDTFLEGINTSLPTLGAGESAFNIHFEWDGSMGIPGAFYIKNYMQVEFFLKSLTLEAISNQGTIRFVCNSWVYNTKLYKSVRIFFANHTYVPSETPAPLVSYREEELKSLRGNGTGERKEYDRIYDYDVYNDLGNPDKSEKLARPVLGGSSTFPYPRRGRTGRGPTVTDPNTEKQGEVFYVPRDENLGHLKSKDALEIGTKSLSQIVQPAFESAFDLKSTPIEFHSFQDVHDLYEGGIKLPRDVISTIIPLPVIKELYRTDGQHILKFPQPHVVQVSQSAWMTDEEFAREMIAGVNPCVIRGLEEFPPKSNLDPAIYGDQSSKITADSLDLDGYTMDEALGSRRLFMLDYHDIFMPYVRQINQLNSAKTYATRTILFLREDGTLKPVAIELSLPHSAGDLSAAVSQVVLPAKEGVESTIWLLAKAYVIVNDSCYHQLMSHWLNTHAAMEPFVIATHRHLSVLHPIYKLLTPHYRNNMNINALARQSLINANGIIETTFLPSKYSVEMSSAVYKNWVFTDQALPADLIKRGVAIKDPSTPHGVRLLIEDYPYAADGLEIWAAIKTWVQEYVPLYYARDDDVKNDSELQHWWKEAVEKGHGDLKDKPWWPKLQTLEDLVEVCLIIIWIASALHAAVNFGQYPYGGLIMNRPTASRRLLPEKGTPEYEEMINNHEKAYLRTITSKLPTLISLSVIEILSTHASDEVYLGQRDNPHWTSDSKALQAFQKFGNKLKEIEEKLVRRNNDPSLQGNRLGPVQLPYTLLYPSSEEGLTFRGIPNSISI
Excerpt: To analyze the type of mechanism, the data of fluorescence of LOX was plotted, as relative fluorescence intensity (F0/F), against MGSDs. Here F and F0 are the fluorescence intensity in the presence and absence of MGSDs respectively. The Stern–Volmer constants were obtained from the plot by linear regression using the expression: F0/F=1+KsvQ.
Ksv is the Stern–Volmer constant and [Q] is the respective concentration of derivatives. Ksv which depicts the binding affinity between the fluorophore (protein) and quencher (ligand), were obtained from the slopes of the plot (Supplementary Fig. 15). […] The Fluorescence quenching data provided information about the binding constant (K), the number of binding sites (n), and the values could be arrived by applying the equation. Log F0-F/F=log K+nlogQ.
The Fluoromax-4 spectrophotometer (Spectra-NanoLED source 278) was used for studying fluorescence quenching of the compound. Bandwidth set at 5 nm for both excitation and emission spectra. The wavelength was set for excitation at 280 nm and the emission was recorded at 290–450 nm using 1.0 cm cell at 296 K temperature. The LOX with a concentration of 7 μM, dissolved in borate buffer at pH 9 and ligands at the concentrations of 35, 70, 105, 140, 175, 210, 245 and 280 μM were used for the experiment.

[8] = target: T2, Lipoxidase from Glycine max (15- LOX) (Glycine max, UniProt P08170); assay: In-vitro LOX enzyme inhibition assay (spectrophotometric, 234 nm); format: biochemical; details: 20 μM compound
T2 construct: purchased Sigma (Sigma-Aldrich, UK)
T2 sequence (P08170 1-839): T1 sequence (P08170 1-839)
Description: The LOX inhibition assays were performed with MGSDs. The inhibitory activity was measured by a modified spectrophotometric method[16],[39]. The plant LOX pathway is in many respects equivalent to the ‘arachidonic acid cascades’ in animals. For this reason, the in vitro inhibition of LOX constitutes a good model for the screening of compounds with anti-inflammatory potential[40],[41]. LOX (Lipoxidase from Glycine max (15- LOX); EC 1.13.11.12) type I-B (Soybean), and linoleic acid were purchased from Sigma (Sigma-Aldrich, UK) and used without further purification. Enzyme solution of 1.03 µM was prepared in 0.2 mM borate buffer, pH 8.5. The substrate, linoleic acid solution of 0.3 mM was also prepared in the borate buffer at the same pH. […] The final concentration of MGSDs used for the analysis was 20 µM. The assay mixture was made of 50 µL of LOX, 50 µL of the test solution and 360 µL of the substrate. The final volume was made up to 2 mL with corresponding borate buffer quantity. The activity of LOX was measured on the formation of […], which was monitored at 234 nm on spectrophotometer, (HITACHI U 2900, Japan). The same procedure was repeated with triplicate for the confirmation of LOX inhibitory activity[16],[39].

[9] = target: T2, Lipoxidase from Glycine max (15- LOX); assay: Michaelis–Menten enzyme kinetics (Lineweaver-Burk); format: biochemical; details: for IC50: Cheng–Prusoff from Ki; for Ki: linoleic acid substrate, competitive
Description: To identify the mode of inhibition, enzyme kinetics assay was performed with MGSDs. For the kinetic analysis different substrate concentrations of 18, 27, 36, 45, 54, 63 µM were prepared in 0.2 mM borate buffer (H 9)[16]. The assay mixture was made of 50 µL of LOX, 50 µL of the test solution and different concentrations of the substrate. The final volume was made upto 2 mL with corresponding borate buffer quantity. The activity of LOX was measured by the formation of […], which was monitored at 234 nm on spectrophotometer, (HITACHI U 2900, Japan). The reaction was measured at a time span of 300 s. The same experiment was repeated in the presence of 0.1, 0.08 and 0.06 μM concentration of MGSDs. The Line Weaver-Burk plot was constructed and Michaelis–Menten constant (Km) and Maximal Velocity (Vmax) were determined from the plot. From the Km and Vmax obtained, the inhibitor constant, Ki was calculated using the following equation derived from the Michaelis–Menten Equation: Km′=Km1+I0/Ki. The IC50was calculated using the Cheng–Prusoff equation, Ki=IC50/1+S/Km.

## O=C(O)Cc1ccccc1Nc1c(Cl)cccc1Cl [Diclofenac]
[1]; 9th day
  Percentage of body weight (Mean ± SEM) 9th day: 9.9 ± 0.07%
[1]; 18th day
  Percentage of body weight (Mean ± SEM) 18th day: 36.55 ± 1.10%
[1]; 28th day
  Percentage of body weight (Mean ± SEM) 28th day: 41.52 ± 1.36%
[2]; 10 mg.kg^-1
  Histology of ankle joints: synovial joint was seen free of infiltration and oedema
[2]; dose not stated
  Histology of liver: hepatocyte arrays and central sinusoid area were seen to regain normalcy and a few necrotic cells were still visible
  Histology of spleen: periarteriolar lymphoid sheath regained normalcy
[2]; methyl gallate high dose
  Histology of thymus: reduction in the number of neutrophils
[3]
  Percentage of inhibition (paw oedema): 59%
[3]; 9th day
  Paw volume (mL) (mean ± SEM) 9th day: 1.44 ± 0.16 mL
[3]; 18th day
  Paw volume (mL) (mean ± SEM) 18th day: 0.8 ± 0.22 mL
[3]; 28th day
  Paw volume (mL) (mean ± SEM) 28th day: 0.73 ± 0.08 mL
[3]; initial day
  Paw volume (mL) (mean ± SEM) Initial day: 0.56 ± 0.05 mL
[3]; listed as diclofenac
  Percentage of inhibition (paw oedema): 59%
[4]
  Organ index (%) Liver: 3.18 ± 0.11%
  Organ index (%) Spleen: 0.21 ± 0.01%
[5]
  Hb: 14.3 ± 0.4 g/dL
  Lymphocyte: 73.2 ± 1.64%
  Neutro phil: 11.5 ± 0.15%
  RBC: 7.92 ± 0.18^# 10^6/mm^3
  WBC: 9.25 ± 0.10^# 10^3/mm^3
[6]
  SGOT: 210 ± 1.73 IU/L
  SGPT: 91 ± 1.20 IU/L

## O=C(O)COc1cc(C(=O)O)cc(O)c1OCC(=O)O [MGSD 2, 2,2′-((5-carboxy-3-hydroxy-1,2-phenylene)bis (oxy))diacetic acid]
[7]
  Kd: 439000 nM
  Quenching constant (Ksv): 6300 M⁻¹
[8]
  inhibition at 20 µM: 68 ± 4.32%
[9]
  IC50: 340 nM
  Ki: 100 nM

## O=C(O)COc1cc(C(=O)O)cc(O)c1O [MGSD 3, (3-(carboxymethoxy)-4,5-dihydroxybenzoic acid]
[7]
  Kd: 485000 nM
  Quenching constant (Ksv): 7800 M⁻¹
[8]
  inhibition at 20 µM: 65 ± 2.65%
[9]; abstract
  IC50: 226 nM
[9]
  Ki: 60 nM
